From patent publication US20250032430A1, “USES OF RHODOQUINONE FOR THE TREATMENT OF DISEASE” (Whitehead Institute for Biomedical Research, priority 2021, published 2025)

Columns and labels:
[1] = tested on: liver, kidney, heart, and skeletal muscle; assay: Ex vivo O2 consumption of mouse tissues
Experimental: Oxygen Consumption Rate (Seahorse): Respiration was measured on intact 143B cells and on mitochondria purified from tissue on the Seahorse XFe-96 Analyzer (Seahorse Bioscience). Cells were incubated in a non-CO2 37° C. incubator in serum-free Seahorse XF RPMI Media (Seahorse Bioscience, Catalog #103336) supplemented with 5 mM glucose, 2 mM glutamine, and 1 mM pyruvate. Oxygen consumption rate (OCR) was measured over a period of 30 minutes. Oxygen consumption rate was also measured on mitochondria purified from mouse tissues. Mitochondria were incubated in MAS buffer (70 mM sucrose, 220 mM mannitol, 10 mM KH2PO4, 5 mM MgCl2, 2 mM HEPES pH 7.2, 1 mM EGTA, 2% BSA) supplemented with 2 mM ADP, 5 mM glutamate, 5 mM malate, 5 mM pyruvate, and 2.5 mM succinate. Oxygen consumption rate (OCR) was measured over a period of 30 minutes.

kidney = assay: Kidney tissue cultured ex vivo (quinone levels, fumarate reduction); parameters: species or system mouse; details: kidney cultured ex vivo for 96 hours, reduced rhodoquinone levels; succinate oxidation not affected
Experimental: Ex vivo stable isotope tracing on tissues: Tissues were excised from mice and washed in 1×PBS. Tissues were then cut into small pieces and placed in the appropriate stable isotope tracing media. Stable isotope tracing media contained either ^13C5^15N2-glutamine (Sigma) or 13C4-aspartate (Sigma) dissolved in DMEM, 5% FBS, 1% P/S. For ex vivo tracing experiments performed on the brain, the same media was used without FBS. Tissues were incubated for the designated time at 37° C. in a normal or hypoxia tissue culture incubator. Tissues were removed from the media, washed with PBS, and flash frozen in liquid nitrogen. Samples could be stored at −80° C. until metabolites were isolated.
Rhodoquinone-9 is a previously unknown mammalian metabolite. Without wishing to be bound by any particular theory, it is believed that since the level of rhodoquinone-9 decreases overtime when the kidney is cultured ex vivo, that cultured media is missing a component of the rhodoquinone biosynthetic pathway, and that this component may be coming from the gut microbiome.

143B cells = assay: 14C-palmitate degradation radioactivity assay (fatty acid oxidation); type: cell-based, human; details: WT (UQ-containing) versus RquA (RQ-containing) 143B cells
Source text: Radioactivity assay to monitor 14C-palmitate degradation in WT (UQ-containing) and RquA (RQ-containing) 143B cells.

[2] = tested on: kidney derived cancer cell line; assay: Western blot of kidney derived cancer cell line cultured in hypoxia (NRF2, PDH phosphorylation); type: cell-based; details: hypoxia for 5 days
Experimental: This includes NRF2 accumulation, which is a sensor of oxidative stress, and phosphorylation on PDH, which is a marker of AMPK activation. AMPK senses AMP, and is hyperactive when cells have “low energy”
Western Blots: Adherent cells were lysed in RIPA buffer (150 mM NaCl, 50 mM Tris-HCl, pH 7.5, 0.1% SDS, 1% Triton-X 100 (Sigma), 0.5% deoxycholate (Sigma), complete EDTA-free protease inhibitor (Sigma)) and clarified by centrifugation. Protein content was quantified using a Pierce BCA Protein Assay Kit (Life Technologies) and 30-50 μg protein were loaded on 12% Tris-Glycine Novex Gels (Invitrogen). Proteins were subsequently transferred to a 0.45 μm PVDF membrane (Sigma). Primary antibodies were used at the following dilutions in 5% BSA:SDHA (Proteintech; 1:1000), NDUFV1 (Abcam; 1:1000), Total OXPHOS Rodent WB Antibody Cocktail-containing UQCRC2, SDHB, and ATP5A (Abcam; 1:1000), COX IV (Cell Signaling Technology; 1:1000), MT-ND5 (Abcam; 1:1000), FLAG (Sigma; 1:1000), HIF1a (Cell Signaling Technology; 1:1000), ATP citrate lyase (Abcam; 1:1000), Citrate Synthase (Cell Signaling; 1:1000). Secondary antibodies were used at the following dilutions in 5% Milk:Anti-rabbit IgG HRP-linked Antibody (1:5000, Cell Signaling Technology), Anti-mouse IgG HRP-linked Antibody (1:5000, Cell Signaling Technology). […]

Row | Substance | O2 consumption [1] | fumarate reduction in the kidney (kidney) | fatty acid oxidation (14C-palmitate degradation) (143B cells) | oxidative and bioenergetic stresses (NRF2 accumulation, phosphorylation on PDH) [2]
1 | antimycin | ablated | – | – | –
2 | rhodoquinone | – | required for ubiquitous fumarate reduction | drives lower fatty acid oxidation | protects against oxidative and bioenergetic stresses
